{"source": "paper PMC6851342", "about": "(The Journal of Biological Chemistry, 2019)", "biological_target": "T1, WT EhV1 (A3B3DF complex, V1-ATPase from Enterococcus hirae) (Enterococcus hirae, UniProt Q08636+Q08637)", "T1 construct": "gene ntpA", "test": "single-molecule rotation, ADP-dependent backward steps and pause durations", "format": "biochemical", "settings": "ATPγS-driven rotation; 10-100 μM ATPγS, 1-300 μM ADP, no ADP-quenching system, pH 6.5", "data": [{"smiles": "Nc1ncnc2c1ncn2[C@@H]1O[C@H](COP(=O)(O)OP(=O)(O)O)[C@@H](O)[C@H]1O", "note": "[ADP]", "values": [{"measurement": "single-molecule rotation, ADP-dependent backward steps and pause durations", "value": "the addition of ADP causes frequent backward steps during the rotation"}]}]}
